Experimental findings from US20100119458A1, “Compositions Containing Metal Oxide Particles and Their Use” (Spago Imaging AB, priority 2007, published 2010) are described below.

The nature of the test: MRI measurements of relaxation rates and relaxivities. The class given is physicochemical. An excerpt:
where ρ=spin density, TE=echo time and TR=repetition time. Contrast agents that are paramagnetic are used to improve the resolution in the images. They have effects on both T1 and T2 but some agents have predominant effects on either T1 or T2. […] Gadolinium (III+) has a predominant effect on T1 and therefore has been used a positive contrast agent (increased MR signal). Iron (III+) has a predominant effect on T2 and has therefore been used as a negative contrast agent (decreased MR signal). The relaxation rate (1/Ti, i=1,2 for hydrogen) observed is proportional to the concentration C of a contrast agent used, i.e.
1/Ti(observed)=1/Ti(inherent)+riC
where 1/Ti (observed) is the relaxation rate in the presence of the contrast agent, 1/Ti (inherent) is the inherent tissue relaxation rate, and the proportionality constant ri is called the relaxivity constant for the contrast agent concerned. See Engström et al (Magn Reson Mater Phy 19 (2006) 180-186 and WO 2006031190 (Uvdal et al) and references cited therein.
15 MRI measurements: See Engström et al., Magn Reson Mater Phy, 19 (2006) 180-186.

`O=C([O-])CN(CCN(CC(=O)[O-])CC(=O)O)CCN(CC(=O)[O-])CC(=O)O.[Gd+3]` [Gd^3+-DTPA]: the “1/T1 (1 mM)” value (relaxation rate at 1 mM) is 0.005 ms^−1. Moreover, the 1/T2 result (relaxation rate, stated in words) is listed as “lower values”.
